# Source: US20060069132A1, “Azolecarboxamide herbicides” (priority 2004, published 2006)
# Key:
# ducksalad = test: Test C flooded paddy test; assay type: in vivo, Heteranthera limosa; details: Heteranthera limosa
# yellow nutsedge = test: Test C pre-/postemergence herbicide test; assay type: in vivo, Cyperus esculentus; details: Cyperus, pre-emergence, read-out: Plant response rating, Nutsedge, Yellow
# Outline: (§1)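 Pre- and postemergence application, solvent/surfactant formulation; post at 1- to 4-leaf stage (2–18 cm). Greenhouse 12–14 d. Visual rating vs controls, 0 = no effect, 100 = complete control.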
# Surinam grass = test: Test C pre-/postemergence herbicide test; assay type: in vivo, Urochloa decumbens; details: Urochloa decumbens, pre-emergence, 312 h, read-out: Plant response rating, Surinam Grass
# Outline: as §1
# lambsquarters = test: Test C pre-/postemergence herbicide test; assay type: in vivo, Chenopodium album; details: Chenopodium album, pre-emergence, read-out: Plant response rating, Lambsquarters
# Outline: as §1
# giant foxtail = test: Test C pre-/postemergence herbicide test; assay type: in vivo, Setaria faberi; details: Setaria faberi, pre-emergence, 312 h, read-out: Plant response rating, Foxtail, Giant
# Outline: as §1
# common ragweed = test: Test C pre-/postemergence herbicide test; assay type: in vivo, Ambrosia elatior; details: Ambrosia artemisiifolia, pre-emergence, read-out: Plant response rating, Ragweed
# Outline: as §1
# soybean = test: Test C pre-/postemergence herbicide test; assay type: in vivo, Glycine max; details: Glycine max, pre-emergence, read-out: Plant response rating, Soybean
# Outline: as §1
# [1] = test system: smallflower umbrella sedge; test: Test C flooded paddy test; assay type: in vivo, Cyperus difformis; details: Cyperus difformis
# barnyardgrass = test: Test C flooded paddy test; assay type: in vivo, Echinochloa crus-galli; details: Echinochloa crus-galli
# Outline: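 Visual rating, 0 (no effect) to 100 (complete control), vs. controls at 12–14 d in greenhouse. Postemergence: 1–4-leaf plants, 2–18 cm. Paddy: flooded, barnyardgrass at 2-leaf stage.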
# morningglory = test: Test C pre-/postemergence herbicide test; assay type: in vivo, Ipomoea coccinea; details: Ipomoea, pre-emergence, read-out: Plant response rating, Morningglory
# Outline: as §1
# eastern black nightshade = test: Test C pre-/postemergence herbicide test; assay type: in vivo, Solanum ptycanthum; details: pre-emergence, read-out: Plant response rating, Nightshade
# Outline: as §1
# johnsongrass = test: Test C pre-/postemergence herbicide test; assay type: in vivo, Sorghum halepense; details: Sorghum halepense, pre-emergence, read-out: Plant response rating, Johnsongrass
# Outline: as §1
# corn = test: Test C pre-/postemergence herbicide test; assay type: in vivo, Zea mays; details: Zea mays, pre-emergence, 312 h
# Outline: as §1
# [2] = 62 g ai/ha, preemergence, scale 0 to 100
# [3] = 125 g ai/ha, scale 0 (no effect) to 100 (complete control), visual, 12 to 14 days
# [4] = 500 g ai/ha, scale 0 to 100 (0 no effect, 100 complete control), visual, 12 to 14 days
smiles,measurement,setting,value
"CCc1nn(C(C)(C)C)cc1C(=O)Nc1cc(C(=O)N(C)C)ccc1F [Compound 222, N-[5-[(dimethylamino)carbonyl]-2-fluorophenyl]-1-(1,1-dimethylethyl)-3-ethyl-1H-pyrazole-4-carboxamide]",pest or weed control at 62 g/ha,"ducksalad; 62 g ai/ha, scale 0 to 100 (0 no effect, 100 complete control), read-out: Ducksalad plant response rating",70%
same,pest or weed control at 125 g/ha,"ducksalad; 125 g ai/ha, scale 0 to 100 (0 no effect, 100 complete control), read-out: Ducksalad plant response rating",75%
same,pest or weed control at 250 g/ha,"ducksalad; 250 g ai/ha, scale of 0 to 100, 0 is no effect, 100 is complete control, read-out: Ducksalad plant response rating",85%
same,pest or weed control at 500 g/ha,"ducksalad; 500 g ai/ha, visual rating after 12 to 14 days, scale 0 to 100 (0 no effect, 100 complete control), read-out: Plant response rating, Ducksalad",95%
same,pest or weed control at 62 g/ha,yellow nutsedge; [2],0%
same,pest or weed control at 125 g/ha,yellow nutsedge; [3],0%
same,pest or weed control at 250 g/ha,"yellow nutsedge; 250 g ai/ha, scale 0-100",20%
same,pest or weed control at 500 g/ha,yellow nutsedge; [4],60%
same,pest or weed control at 62 g/ha,Surinam grass; [2],80%
same,pest or weed control at 250 g/ha,"Surinam grass; 250 g ai/ha, scale 0-100",100%
same,pest or weed control at 500 g/ha,Surinam grass; [4],100%
same,pest or weed control at 62 g/ha,lambsquarters; [2],100%
same,pest or weed control at 125 g/ha,lambsquarters; [3],100%
same,pest or weed control at 250 g/ha,"lambsquarters; 250 g ai/ha, scale 0-100",100%
same,pest or weed control at 500 g/ha,lambsquarters; [4],100%
same,pest or weed control at 62 g/ha,giant foxtail; [2],20%
same,pest or weed control at 125 g/ha,giant foxtail; [3],85%
same,pest or weed control at 250 g/ha,"giant foxtail; 250 g ai/ha, scale 0-100",95%
same,pest or weed control at 500 g/ha,giant foxtail; [4],100%
same,pest or weed control at 62 g/ha,common ragweed; [2],80%
same,pest or weed control at 250 g/ha,"common ragweed; 250 g ai/ha, scale 0-100",100%
same,pest or weed control at 500 g/ha,common ragweed; [4],100%
same,plant injury at 62 g/ha,soybean; [2],40%
same,plant injury at 250 g/ha,"soybean; 250 g ai/ha, scale 0-100",100%
same,plant injury at 500 g/ha,soybean; [4],100%
same,pest or weed control at 62 g/ha,"[1]; 62 g ai/ha, scale 0 to 100 (0 no effect, 100 complete control), read-out: Sedge, Umbrella plant response rating",65%
same,pest or weed control at 125 g/ha,"[1]; 125 g ai/ha, scale 0 to 100 (0 no effect, 100 complete control), read-out: Sedge, Umbrella plant response rating",75%
same,pest or weed control at 250 g/ha,"[1]; 250 g ai/ha, scale of 0 to 100, 0 is no effect, 100 is complete control, read-out: Sedge, Umbrella plant response rating",85%
same,pest or weed control at 500 g/ha,"[1]; 500 g ai/ha, visual rating after 12 to 14 days, scale 0 to 100 (0 no effect, 100 complete control), read-out: Plant response rating, Sedge, Umbrella",90%
same,pest or weed control at 62 g/ha,"barnyardgrass; 62 g ai/ha, scale 0 to 100 (0 no effect, 100 complete control), read-out: Barnyardgrass plant response rating",15%
same,pest or weed control at 125 g/ha,"barnyardgrass; 125 g ai/ha, scale 0 to 100 (0 no effect, 100 complete control), read-out: Barnyardgrass plant response rating",75%
same,pest or weed control at 250 g/ha,"barnyardgrass; 250 g ai/ha, scale of 0 to 100, 0 is no effect, 100 is complete control, read-out: Barnyardgrass plant response rating",90%
same,pest or weed control at 500 g/ha,"barnyardgrass; 500 g ai/ha, visual rating after 12 to 14 days, scale 0 to 100 (0 no effect, 100 complete control), read-out: Plant response rating, Barnyardgrass",95%
same,pest or weed control at 62 g/ha,morningglory; [2],0%
same,pest or weed control at 125 g/ha,morningglory; [3],20%
same,pest or weed control at 250 g/ha,"morningglory; 250 g ai/ha, scale 0-100",30%
same,pest or weed control at 500 g/ha,morningglory; [4],100%
same,pest or weed control at 62 g/ha,eastern black nightshade; [2],85%
same,pest or weed control at 125 g/ha,eastern black nightshade; [3],100%
same,pest or weed control at 250 g/ha,"eastern black nightshade; 250 g ai/ha, scale 0-100",100%
same,pest or weed control at 500 g/ha,eastern black nightshade; [4],100%
same,pest or weed control at 62 g/ha,johnsongrass; [2],85%
same,pest or weed control at 125 g/ha,johnsongrass; [3],100%
same,pest or weed control at 250 g/ha,"johnsongrass; 250 g ai/ha, scale 0-100",100%
same,pest or weed control at 500 g/ha,johnsongrass; [4],100%
same,"Corn plant response rating (crop injury, 0 = no effect, 100 = complete kill) at 62 g/ha",corn; [2],0%
same,"Corn plant response rating (crop injury, 0 = no effect, 100 = complete kill) at 125 g/ha",corn; [3],20%
same,"Corn plant response rating (crop injury, 0 = no effect, 100 = complete kill) at 250 g/ha","corn; 250 g ai/ha, scale 0-100",60%
same,"Corn plant response rating (crop injury, 0 = no effect, 100 = complete kill) at 500 g/ha",corn; [4],100%
